From patent US20080153896A1, “Polymorphic Forms of an HMG-CoA Reductase Inhibitor and Uses Thereof” (priority 2006, published 2008)

Experiment: Stability (integrity) testing of amorphous and polymorphic form under storage conditions, RP-HPLC
Type: physicochemical
Design: key to Impurity RRT 0.738 / Impurity RRT 0.949 / Impurity RRT 1.050 / Impurity RRT 1.550 / Impurity RRT 0.136 / Impurity RRT 0.720 / Impurity RRT 0.706 / Impurity RRT 1.18 / Impurity RRT 1.826: % of total UV absorption (HPLC peak area)
Experimental: The integrity of the different forms of the (3R, 5R)-7-[2-(4-fluorophenyl)-5-isopropyl-3-phenyl-4-[(4-hydroxymethylphenylamino)carbonyl]-pyrrol-1-yl]-3,5-dihydroxy-heptanoic acid, hemi calcium salt, was tested under different atmospheric conditions to determine the stability of the amorphous and polymorphic form of the drug in various storage environments. Reversed Phase-HPLC (RP-HPLC) was used to separate (3R, 5R)-7-[2-(4-fluorophenyl)-5-isopropyl-3-phenyl-4-[(4-hydroxymethylphenylamino)carbonyl]-pyrrol-1-yl]-3,5-dihydroxy-heptanoic acid, hemi calcium salt, from smaller molecules representing breakdown products as well as oxidized drug. The relative amount of the drug was reported as a percent of total absorption by UV. The total peak area of all UV absorption impurities was used to define total impurity of the drug. Impurities are defined by their relative retention time (RRT) compared to native drug. Samples were injected onto a C18 column using standard temperature, gradient and run-time conditions.
The results of this integrity testing for the amorphous form of (3R, 5R)-7-[2-(4-fluorophenyl)-5-isopropyl-3-phenyl-4-[(4-hydroxymethylphenylamino)carbonyl]-pyrrol-1-yl]-3,5-dihydroxy-heptanoic acid, hemi calcium salt, is shown in Table 5.
Three separate batches of polymorphic Form I of (3R, 5R)-7-[2-(4-fluorophenyl)-5-isopropyl-3-phenyl-4-[(4-hydroxymethylphenylamino)carbonyl]-pyrrol-1-yl]-3,5-dihydroxy-heptanoic acid, hemi calcium salt, were prepared and tested under the same atmospheric conditions described for the amorphous form.

[1] = 25° C./60% RH 12M, hemi calcium salt
[2] = 30° C./65% RH 1M, hemi calcium salt
[3] = 30° C./65% RH 2M, hemi calcium salt
[4] = 30° C./65% RH 3M, hemi calcium salt
[5] = 30° C./65% RH 6M, hemi calcium salt
[6] = 30° C./65% RH 9M, hemi calcium salt
[7] = 30° C./65% RH 12M, hemi calcium salt
[8] = 40° C./75% RH 1M, hemi calcium salt
[9] = 40° C./75% RH 2M, hemi calcium salt
[10] = 40° C./75% RH 3M, hemi calcium salt
[11] = 40° C./75% RH 6M, hemi calcium salt
[12] = Initial, listed as Batch 1 of Polymorphic Form I, hemi calcium salt

CC(C)c1c(C(=O)Nc2ccc(CO)cc2)c(-c2ccccc2)c(-c2ccc(F)cc2)n1CC[C@@H](O)C[C@@H](O)CC(=O)[O-].CC(C)c1c(C(=O)Nc2ccc(CO)cc2)c(-c2ccccc2)c(-c2ccc(F)cc2)n1CC[C@@H](O)C[C@@H](O)CC(=O)[O-].[Ca+2] [PP00405, (3R, 5R)-7-[2-(4-fluorophenyl)-5-isopropyl-3-phenyl-4-[(4-hydroxymethylphenylamino)carbonyl]-pyrrol-1-yl]-3,5-dihydroxy-heptanoic acid, hemi calcium salt]
Highest Impurity [1]: 0.412
Impurity RRT 0.935 [1]: 0.412
Impurity RRT 1.045 [1]: 0.396
Impurity RRT 1.640 [1]: 0.051
Total Impurity [1]: 1.318
Water [1]: 5.47 % W/W
Description (30° C./65% RH 1M): White
Impurity RRT 1.094 (30° C./65% RH 1M): 0.149
Impurity RRT 1.437 (30° C./65% RH 1M): 0.161
Impurity RRT 1.593 (30° C./65% RH 1M): 0.061
Impurity RRT 1.694 (30° C./65% RH 1M): 0.060
Water (30° C./65% RH 1M): 4.16 % W/W
Assay [2]: 98.25 % W/W
Highest Impurity [2]: 0.370
Impurity RRT 0.935 [2]: 0.370
Impurity RRT 1.045 [2]: 0.300
Impurity RRT 1.64 [2]: 0.047
Total Impurity [2]: 1.228
Description (30° C./65% RH 2M): White
Impurity RRT 1.094 (30° C./65% RH 2M): 0.16
Impurity RRT 1.180 (30° C./65% RH 2M): 0.044
Impurity RRT 1.437 (30° C./65% RH 2M): 0.163
Impurity RRT 1.593 (30° C./65% RH 2M): 0.080
Impurity RRT 1.694 (30° C./65% RH 2M): 0.062
Assay [3]: 98.23 % W/W
Highest Impurity [3]: 0.390
Impurity RRT 0.935 [3]: 0.390
Impurity RRT 1.045 [3]: 0.374
Impurity RRT 1.64 [3]: 0.044
Total Impurity [3]: 1.320
Water [3]: 3.85 % W/W
Description (30° C./65% RH 3M): White
Impurity RRT 1.094 (30° C./65% RH 3M): 0.167
Impurity RRT 1.437 (30° C./65% RH 3M): 0.168
Impurity RRT 1.593 (30° C./65% RH 3M): 0.081
Impurity RRT 1.694 (30° C./65% RH 3M): 0.066
Assay [4]: 98.15 % W/W
Highest Impurity [4]: 0.416
Impurity RRT 0.935 [4]: 0.416
Impurity RRT 1.045 [4]: 0.405
Impurity RRT 1.64 [4]: 0.048
Total Impurity [4]: 1.350
Water [4]: 4.73 % W/W
Description (30° C./65% RH 6M): White
Impurity RRT 0.136 (30° C./65% RH 6M): 0.049
Impurity RRT 1.094 (30° C./65% RH 6M): 0.140
Impurity RRT 1.437 (30° C./65% RH 6M): 0.150
Impurity RRT 1.593 (30° C./65% RH 6M): 0.077
Impurity RRT 1.694 (30° C./65% RH 6M): 0.044
Assay [5]: 98.08 % W/W
Highest Impurity [5]: 0.361
Impurity RRT 0.935 [5]: 0.355
Impurity RRT 1.045 [5]: 0.361
Impurity RRT 1.640 [5]: 0.042
Total Impurity [5]: 1.218
Water [5]: 5.62 % W/W
Description (30° C./65% RH 9M): White
Impurity RRT 0.136 (30° C./65% RH 9M): 0.056
Impurity RRT 1.094 (30° C./65% RH 9M): 0.134
Impurity RRT 1.437 (30° C./65% RH 9M): 0.147
Impurity RRT 1.593 (30° C./65% RH 9M): 0.080
Impurity RRT 1.694 (30° C./65% RH 9M): 0.051
Assay [6]: 98.15 % W/W
Highest Impurity [6]: 0.387
Impurity RRT 0.935 [6]: 0.387
Impurity RRT 1.045 [6]: 0.351
Impurity RRT 1.640 [6]: 0.033
Total Impurity [6]: 1.239
Water [6]: 5.55 % W/W
Impurity RRT 0.136 (30° C./65% RH 12M): 0.240
Impurity RRT 1.094 (30° C./65% RH 12M): 0.120
Impurity RRT 1.437 (30° C./65% RH 12M): 0.148
Impurity RRT 1.593 (30° C./65% RH 12M): 0.075
Impurity RRT 1.694 (30° C./65% RH 12M): 0.055
Assay [7]: 98.09 % W/W
Highest Impurity [7]: 0.375
Impurity RRT 0.935 [7]: 0.375
Impurity RRT 1.045 [7]: 0.372
Impurity RRT 1.640 [7]: 0.044
Total Impurity [7]: 1.492
Water [7]: 5.91 % W/W
Description (40° C./75% RH 1M): White
Impurity RRT 1.094 (40° C./75% RH 1M): 0.167
Impurity RRT 1.437 (40° C./75% RH 1M): 0.155
Impurity RRT 1.593 (40° C./75% RH 1M): 0.085
Impurity RRT 1.694 (40° C./75% RH 1M): 0.071
Assay [8]: 98.22 % W/W
Highest Impurity [8]: 0.405
Impurity RRT 0.935 [8]: 0.405
Impurity RRT 1.045 [8]: 0.39
Impurity RRT 1.64 [8]: 0.05
Total Impurity [8]: 1.323
Water [8]: 4.52 % W/W
Description (40° C./75% RH 2M): White
Impurity RRT 1.094 (40° C./75% RH 2M): 0.164
Impurity RRT 1.180 (40° C./75% RH 2M): 0.049
Impurity RRT 1.437 (40° C./75% RH 2M): 0.169
Impurity RRT 1.593 (40° C./75% RH 2M): 0.082
Impurity RRT 1.694 (40° C./75% RH 2M): 0.067
Assay [9]: 98.16 % W/W
Highest Impurity [9]: 0.408
Impurity RRT 0.935 [9]: 0.407
Impurity RRT 1.045 [9]: 0.408
Impurity RRT 1.64 [9]: 0.046
Total Impurity [9]: 1.39
Water [9]: 4.63 % W/W
Description (40° C./75% RH 3M): White
Impurity RRT 1.094 (40° C./75% RH 3M): 0.162
Impurity RRT 1.437 (40° C./75% RH 3M): 0.167
Impurity RRT 1.593 (40° C./75% RH 3M): 0.094
Impurity RRT 1.694 (40° C./75% RH 3M): 0.056
Assay [10]: 98.11 % W/W
Highest Impurity [10]: 0.403
Impurity RRT 0.935 [10]: 0.403
Impurity RRT 1.045 [10]: 0.396
Impurity RRT 1.64 [10]: 0.049
Total Impurity [10]: 1.330
Water [10]: 4.64 % W/W
Description (40° C./75% RH 6M): White
Impurity RRT 1.094 (40° C./75% RH 6M): 0.146
Impurity RRT 1.437 (40° C./75% RH 6M): 0.151
Impurity RRT 1.593 (40° C./75% RH 6M): 0.098
Impurity RRT 1.694 (40° C./75% RH 6M): 0.074
Assay [11]: 98.22 % W/W
Highest Impurity [11]: 0.391
Impurity RRT 0.935 [11]: 0.391
Impurity RRT 1.045 [11]: 0.351
Impurity RRT 1.640 [11]: 0.031
Total Impurity [11]: 1.242
Water [11]: 5.55 % W/W
Description (Initial): White
Impurity RRT 0.720 (Initial): 0.046
Impurity RRT 1.094 (Initial): 0.142
Impurity RRT 1.437 (Initial): 0.162
Impurity RRT 1.593 (Initial): 0.079
Impurity RRT 1.694 (Initial): 0.068
Assay [12]: 98.48 % W/W
Highest Impurity [12]: 0.411
Impurity RRT 1.045 [12]: 0.385
Impurity RRT 1.64 [12]: 0.046
Total Impurity [12]: 1.340
Water [12]: 4.55 % W/W
